Data published in US20060178374A1, “Aminoheteroaryl compounds as protein kinase inhibitors” (AGOURON PHARMACEUTICALS, INC., priority 2004, published 2006).
pKi: −log10 of the molar value.

Target: HGFR (c-Met) (Homo sapiens, UniProt P08581)
Test: HGFR Continuous-Coupled Spectrophotometric Assay
Type: biochemical
Conditions: for pKi: HGFR enzyme 50 nM, Met-2 peptide substrate, 37° C.
Procedure, shortened: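 Human HGFR (50 nM final) phosphorylates the Met-2 activation-loop peptide, with ADP formation coupled through PK/LDH to NADH consumption, read as the A340 decrease over 10 min at 37 °C. Buffer was HEPES pH 7.5 with MgCl2, DTT, PEP and ATP.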

Chain of HGFR (c-Met) (P08581 974-1390): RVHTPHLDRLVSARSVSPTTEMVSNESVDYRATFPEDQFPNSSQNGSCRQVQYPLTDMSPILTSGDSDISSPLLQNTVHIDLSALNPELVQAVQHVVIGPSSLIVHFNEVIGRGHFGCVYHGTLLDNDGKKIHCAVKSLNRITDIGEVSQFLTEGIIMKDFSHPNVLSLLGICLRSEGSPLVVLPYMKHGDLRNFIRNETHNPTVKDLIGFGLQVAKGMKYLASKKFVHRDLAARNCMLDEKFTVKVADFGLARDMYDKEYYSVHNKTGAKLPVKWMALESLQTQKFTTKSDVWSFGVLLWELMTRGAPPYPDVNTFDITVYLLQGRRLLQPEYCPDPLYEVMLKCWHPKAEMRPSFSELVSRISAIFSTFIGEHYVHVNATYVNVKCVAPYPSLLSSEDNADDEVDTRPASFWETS

Compound | pKi | inhibition at 1 µM (compound at 1 μM)
CC(Oc1cc(-c2ccc(C(=O)N3CCC4(CCNCC4)C3)cc2)cnc1N)c1c(Cl)ccc(F)c1Cl (stereo not drawn) [Example 19, 5-[4-(2,8-Diazaspiro[4.5]dec-2-ylcarbonyl)phenyl]-3-[1-(2,6-dichloro-3-fluorophenyl)ethoxy]pyridin-2-amine] | 7.34 | 93%
C[C@@H](Oc1cc(-c2ccc(CO)cc2)cnc1N)c1c(Cl)ccc(F)c1Cl [Example 127, (4-{6-amino-5-[(1R)-1-(2,6-dichloro-3-fluorophenyl)ethoxy]pyridin-3-yl}phenyl)methanol] | 7.29 | 
